Assay results published in patent US20230270764A1, “COMPOSITION COMPRISING CANNABINOIDS, TERPENES, AND FLAVONOIDS FOR TREATING DEPRESSION” (priority 2020, published 2023).
Read-outs that look alike come from different tables or passages of the source.

Legend:
BV2 microglial cells = experiment: LPS-induced TNFα secretion by BV2 microglia cell cultures (ELISA); assay type: cell-based, murine; details: for levels of TNFα compared to cultures treated with vehicle and LPS: 24-hours incubation, CBD 10 but not 1 µM, linalool 100 but not 25 µM, kaempferol dose-dependently at 10, 25 and 50 µM, quercetin 10 and 25 but not 5 µM; for IC50: Mus musculus
Experimental: The BV2 murine microglial cell line is used in these studies.
The BV2 cells are cultured at 37° C. in a humidified atmosphere with 5% CO2 in high D-glucose (4.5 g/L) Dulbecco’s modified Eagle’s medium (Sigma, Rehovot, Israel) supplemented with 5% heat-inactivated fetal bovine serum, streptomycin (100 µg/ml), and penicillin (100 units/ml) and sodium pyruvate (1 mM; all from Biological Industries Ltd., Kibbutz Beit Haemek, Israel). 24 hours before experiments with LPS stimulation, the BV2 cells are split into 24 well plates, 2×10^5 cells per well, covered with 1 ml of growth medium and allowed to attach overnight. 24 hr before experiments with α-synuclein, the BV2 cells are split into 96-well plates, 50,000 (5×10^4) cells per well, covered with 200 µl of growth medium and allowed to attach overnight. Cultures of BV2 microglia cells are first treated by an individual cannabinoid, or terpene or flavonoid selected from: Cannabidiol (CBD), Δ-9-tetrahydrocannabinol (THC), Δ-8-tetrahydrocannabinol (THC), cannabigerol (CBG), cannabichromene (CBC), cannabigerolic acid (CBGA), Cannabidiolic acid (CBDA), THC acid (THCA), cannabichromenic Acid (CBCA), Cannabidivarin (CBDV), tetrahydrocannabivarin (THCV), Cannabichromevarin (CBCV), Cannabichromerocin ([…]), Cannabivarin (CBV), Cannabicitran (CBT), Cannabinol (CBN), Cannabicyclol (CBL), Cannabigerorcin (CBGO), Cannabinodiol (CBND), β-caryophyllene, β-elemene, β-myrcene, linalool, α-pinene, β-pinene, eucalyptol, alpha-terpineol, valencene, geraniol (lemonol), bisabolol, nerolidol, ocimene, terpinolene, humulene, α-terpinene, camphene, fenchol, α-phellandrene, Δ3-carene, γ-cardinene, sabinene, limonene, β-amyrin, cycloartenol, cannflavin A, cannflavin B, kaempferol, quercetin, luteolin, apigenin, canniprene, orientin, β-sitosterol, vitexin, isovitexin, and chrysin. Additional cultures of BV2 microglia cells are treated by an individual cannabinoid, with at least one additional cannabinoid, and/or terpene, and/or flavonoid, and/or celecoxib. Additional cultures are exposed to the vehicle of these compounds (cremophor, ethanol and PBS, 1:1:18 (v/v/v)) (FIG. 2A). In some studies, cultures of BV2 microglia cells are treated by a specific whole plant cannabis extract, with or without supplementation with cannabinoid(s), and/or terpene(s) and/or flavonoid(s), and/or celecoxib (FIG. 2B).
For each individual cannabinoid mentioned above, 3-4 concentrations are used, ranging from 0.1 to 10 µM. For ultra-low dose Δ9-THC the concentration used is 0.01 µM. […] For celecoxib, 3-4 concentrations are used, ranging from 0.1 to 10 µM. Two hours following the treatment, the cultures are exposed to one of the following microglia stimulators: LPS (Sigma L2630; Escherichia coli serotype O111:B4) is dissolved in D-PBS (Sigma, D8537) to a pre-stock concentration of 1 mg/ml, aliquoted and stored at -80° C. Stock solution of LPS at 10 ug/ml is prepared using sterile D-PBS, followed by filtering via 0.22 µm filter membrane, aliquoting and storing in -20° C. LPS is applied into the cell medium at a final concentration of 100 ng/ml. Poly I:C (Sigma, P1530) was first dissolved in sterile, molecular grade water to the concentration of 10 mg/ml (following the manufacturer’s instructions). This stock solution was further diluted to the concentration of 1 mg/ml in sterile PBS, and the aliquots stored in -20 °C.

LPS-injected mice = experiment: Sucrose preference test in the LPS-induced model of depression; assay type: in vivo; details: Example 9; male C57BL/6, i.p. 1 h before LPS 330 µg/kg; mg/kg: CBD 30; CBDA 1 or 5; BCP 50; kaempferol 30; CBD 30 plus THC 10; CBD 30 plus kaempferol 30
From the text: In a preliminary screening experiment, subjects were 4-6 months-old male C57BL/6 (Jackson Laboratories, USA). Animals were housed 2-3/cage, kept in an air-conditioned room (23+°C) and given ad libitum access to food and water. The mice were kept in a reversed light/dark cycle, with lights off from 7 a.m. to 7 p.m. All experiments were approved by the Hebrew University of Jerusalem Ethics Committee on Animal Care and Use. In preparation for the Sucrose Preference Test, mice were habituated 2-3 times to sucrose drinking, by exposing them overnight to two graduated tubes, one containing water and the other containing sucrose solution (1%, w/v). Water and sucrose consumption were measured, and sucrose preference was computed by dividing the amount of sucrose consumed by drinking (ml sucrose) by the total drinking volume (ml of sucrose + water). One day later, the weight of the mice and the food in their cages was weighed for later analysis of food consumption and body weight changes. Groups of mice were injected intraperitoneally (i.p.) with either vehicle (cremophor, ethanol and PBS, 1:1:18 (v/v/v)) or a cannabinoid-based formulation (by itself or with another cannabinoid, or a terpene or a flavonoid). One hour later, each of these groups was injected with LPS (330 µg/kg). All injections were administered at a dose of 10 ml/kg. Four hours following the LPS injection, mice were tested in the Open-Field Test. In this test, the measured locomotor activity reflects not only motor capacity, but particularly the innate motivation for spatial exploration (which increases the distance travelled) and the anxiety level (which reduces the distance travelled, in general, and particularly the distance and time spent in the center of the open field). Each subject was placed near one of the walls of a white 50 X 50 cm^2 arena with 40 cm high walls. The distance travelled (cm), the velocity of the movement (cm/second), the time spent (seconds), distance travelled (cm) in the center area of the arena, as well as the number of entries from the perimeter area into the center of the arena were automatically measured over a 4-minute period, using EthoVision XT video tracking system and software (Noldus, The Netherlands). Twenty-four hours after the LPS injection, mice were tested in the Social Exploration Test. […] Social exploration, defined as the time of near contact between the nose of the subject and the juvenile in the small cage was recorded for 4 min, using computerized in-house software. Sucrose preference was assessed, as described above, between 8 to 27 hr post LPS injection. Body weight and weight of the food were measured two hours before the LPS injection, and again after 24 hours, and the change in body weight and food consumption were calculated. […]

[1] = Example 4, by itself at 1, 2.5 and 5 µM

Structure (SMILES): C=C(C)[C@@H]1CCC(C)=C[C@H]1c1c(O)cc(CCCCC)cc1O [CBD, cannabidiol]
- levels of TNFα compared to cultures treated with vehicle and LPS (BV2 microglial cells): reduced
- release of TNFα (BV2 microglial cells; Example 3, 10 µM (not 1, 2.5 or 5 µM)): significantly inhibited
- release of TNFα vs LPS-activated cultures treated with vehicle (BV2 microglial cells; [1]): no effects
- TNFα secretion from LPS activated microglial cells (BV2 microglial cells; Example 5, CBD 5 µM alone (p<0.05)): decreased the TNFα secretion
- release of TNFα vs LPS-activated cultures treated with vehicle (BV2 microglial cells; Example 5, by themselves, CBD 1 and 2.5 µM, quercetin 1, 2.5 and 5 µM): did not affect
- release of TNFα vs LPS-activated cultures treated with vehicle (BV2 microglial cells; Example 6, by itself, CBD 1, 2.5 and 5 µM, CBDV 1, 2.5, 5 and 10 µM): no concentration of either CBD or CBDV by itself affected release of TNFα
- inhibition of LPS-induced TNFα secretion (BV2 microglial cells; Example 7, by themselves): did not produce significant inhibition
- LPS-induced TNFα release (BV2 microglial cells; Example 25, LPS 100 ng/ml, CannA 5 and 10 µM, CBD and CannB only at 10 µM, CannC 1-10 µM, extract concentration as dominant cannabinoid): significantly inhibited
- IC50 (BV2 microglial cells; BV-2, read-out: CBD IC50, LPS-induced TNFα release, Example 4, addition of 1 µM kaempferol): 2.3 µM
- IC50 (BV2 microglial cells; BV-2, read-out: CBD IC50, LPS-induced TNFα release, Example 4, addition of 2.5 µM kaempferol): 1.3 µM
- IC50 (BV2 microglial cells; BV-2, read-out: CBD IC50, LPS-induced TNFα release, Example 4, addition of 5 µM kaempferol): 0.8 µM
- IC50 (BV2 microglial cells; BV-2, read-out: CBD IC50, LPS-induced TNFα release, Example 5, addition of 1 µM quercetin): 3.8 µM
- IC50 (BV2 microglial cells; BV-2, read-out: CBD IC50, LPS-induced TNFα release, Example 5, addition of 2.5 µM quercetin): 3.2 µM
- IC50 (BV2 microglial cells; BV-2, read-out: CBD IC50, LPS-induced TNFα release, Example 5, addition of 5 µM quercetin): 1.8 µM
- IC50 (BV2 microglial cells; BV-2, read-out: CBD IC50, LPS-induced TNFα release, Example 6, addition of 1 µM CBDV): 3.4 µM
- IC50 (BV2 microglial cells; BV-2, read-out: CBD IC50, LPS-induced TNFα release, Example 6, addition of 2.5 µM CBDV): 4.8 µM
- IC50 (BV2 microglial cells; BV-2, read-out: CBD IC50, LPS-induced TNFα release, Example 6, addition of 5 µM CBDV): 2.7 µM
- IC50 (BV2 microglial cells; BV-2, read-out: CBD IC50, LPS-induced TNFα release, Example 6, addition of 10 µM CBDV): 2.4 µM
- IC50 (BV2 microglial cells; BV-2, read-out: IC50 for TNFα inhibition): 7.2 µM
- IC50 (BV2 microglial cells; BV-2, read-out: IC50 for inhibiting LPS-induced TNFα release): 5.3 µM
- IC50 (BV2 microglial cells; BV-2, read-out: IC50 for inhibiting LPS-induced TNFα release, Example 5 (FIG. 6C), by itself): 6.2 µM
- IC50 (BV2 microglial cells; BV-2, read-out: IC50 for inhibiting LPS-induced TNFα release, Example 6 (FIG. 7C), by itself): 5.4 µM
- sucrose preference compared with vehicle-treated groups (LPS-injected mice): significantly increased sucrose preference

Structure (SMILES): C=C(C)[C@@H]1CCC(C)=C[C@H]1c1c(O)cc(CCCCC)c(C(=O)O)c1O [CBDA, Cannabidiolic acid]
- effect on lipopolysaccharide-induced TNFα secretion (BV2 microglial cells; THC 0.1, 0.5 and 1 µM, CBDA 0.2, 1 and 2 µM, CBC 0.1, 1 and 2 µM, α-pinene, β-pinene, limonene 25 or 100 µM): no effect
- sucrose preference compared with vehicle-treated groups (LPS-injected mice): significantly increased sucrose preference

Structure (SMILES): O=c1c(O)c(-c2ccc(O)cc2)oc2cc(O)cc(O)c12 [kaempferol]
- levels of TNFα compared to cultures treated with vehicle and LPS (BV2 microglial cells): reduced
- release of TNFα vs LPS-activated cultures treated with vehicle (BV2 microglial cells; [1]): no effects
- IC50 (BV2 microglial cells; BV-2, Example 4 (FIG. 5C), by itself, read-out: IC50 for inhibiting LPS-induced TNFα release): 9.8 µM
- sucrose preference compared with vehicle-treated groups (LPS-injected mice): significantly increased sucrose preference
